Experimental data from PubChem BioAssay AID248 (DTP/NCI, 2004).
“And” between values parts separate entries of the source, which are not always exact repeats. Equal entries are not always repeated. Toxic doses and inconclusive results are not listed. Cut-off read from the data, not from the text of the source: active = T/C of 150% or more; inactive = T/C below 125%.

System: L1210 leukemia ip in BDF1 mice, survival T/C
Assay: NCI In Vivo Anticancer Drug Screen. Data for tumor model L1210 Leukemia (intraperitoneal) in B6D2F1 (BDF1) mice
Conditions: endpoint: mean survival time, higher = longer survival
Procedure, shortened: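 Transplantable tumor model; survival measured in treated vs vehicle control mice. Value = treated/control.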

[1] = dose: 50.0 mg/kg/injection, schedule: Q01DX001 (ip), vehicle: carboxymethylcellulose (CMC)
[2] = dose: 100.0 mg/kg/injection, schedule: Q01DX001 (ip), vehicle: carboxymethylcellulose (CMC)
[3] = dose: 200.0 mg/kg/injection, schedule: Q01DX001 (ip), vehicle: carboxymethylcellulose (CMC)
[4] = dose: 400.0 mg/kg/injection, schedule: Q01DX001 (ip), vehicle: carboxymethylcellulose (CMC)
[5] = dose: 100.0 mg/kg/injection, schedule: Q01DX001 (ip), vehicle: Klucel (hydroxypropylcellulose) (HPC)
[6] = dose: 200.0 mg/kg/injection, schedule: Q01DX001 (ip), vehicle: Klucel (hydroxypropylcellulose) (HPC)
[7] = dose: 400.0 mg/kg/injection, schedule: Q01DX001 (ip), vehicle: Klucel (hydroxypropylcellulose) (HPC)
[8] = dose: 100.0 mg/kg/injection, schedule: Q04DX003 (ip), vehicle: Klucel (hydroxypropylcellulose) (HPC)
[9] = dose: 200.0 mg/kg/injection, schedule: Q04DX003 (ip), vehicle: Klucel (hydroxypropylcellulose) (HPC)
[10] = dose: 400.0 mg/kg/injection, schedule: Q04DX003 (ip), vehicle: Klucel (hydroxypropylcellulose) (HPC)
[11] = dose: 100.0 mg/kg/injection, schedule: Q01DX009 (ip), vehicle: saline with Tween-80
[12] = dose: 100.0 mg/kg/injection, schedule: Q04DX002 (ip), vehicle: saline
[13] = dose: 200.0 mg/kg/injection, schedule: Q01DX009 (ip), vehicle: saline with Tween-80
[14] = dose: 200.0 mg/kg/injection, schedule: Q04DX002 (ip), vehicle: saline
[15] = dose: 400.0 mg/kg/injection, schedule: Q01DX009 (ip), vehicle: saline with Tween-80
[16] = dose: 100.0 mg/kg/injection, schedule: Q01DX001 (ip), vehicle: saline
[17] = dose: 200.0 mg/kg/injection, schedule: Q01DX001 (ip), vehicle: saline
[18] = dose: 400.0 mg/kg/injection, schedule: Q01DX001 (ip), vehicle: saline
[19] = dose: 100.0 mg/kg/injection, schedule: Q04DX002 (ip), vehicle: saline with Tween-80
[20] = dose: 200.0 mg/kg/injection, schedule: Q04DX002 (ip), vehicle: saline with Tween-80
[21] = dose: 50.0 mg/kg/injection, schedule: Q01DX009 (ip), vehicle: saline with Tween-80
[22] = dose: 100.0 mg/kg/injection, schedule: Q04DX002 (ip), vehicle: Klucel (hydroxypropylcellulose) (HPC)
[23] = dose: 200.0 mg/kg/injection, schedule: Q04DX002 (ip), vehicle: Klucel (hydroxypropylcellulose) (HPC)
[24] = dose: 400.0 mg/kg/injection, schedule: Q04DX002 (ip), vehicle: Klucel (hydroxypropylcellulose) (HPC)
[25] = dose: 100.0 mg/kg/injection, schedule: Q01DX009 (ip), vehicle: Klucel (hydroxypropylcellulose) (HPC)
[26] = dose: 200.0 mg/kg/injection, schedule: Q01DX009 (ip), vehicle: Klucel (hydroxypropylcellulose) (HPC)
[27] = dose: 400.0 mg/kg/injection, schedule: Q01DX009 (ip), vehicle: Klucel (hydroxypropylcellulose) (HPC)

Measured: T/C

Cc1ccc(CN(C)C)c(C(O)(c2ccccc2)c2ccccc2)c1
inactive: [1] 96 % of control | [2] 107 % of control | [3] 100 % of control | [4] 96 % of control

CCN(CCCl)CCNc1c2ccccc2nc2c1ccc1ccccc12
inactive: dose: 1.25 mg/kg/injection, schedule: Q01DX005 (ip), vehicle: saline 116 % of control | dose: 2.5 mg/kg/injection, schedule: Q01DX005 (ip), vehicle: saline 115 % of control | dose: 5.0 mg/kg/injection, schedule: Q01DX005 (ip), vehicle: saline 107 % of control

CCOC(=O)/C=C(\C)c1ccc([N+](=O)[O-])cc1
inactive: [5] 107 % of control | [6] 100 % of control | [7] 97 % of control

c1ccc2nc(-c3cc4ccccc4s3)ccc2c1
inactive: dose: 100.0 mg/kg/injection, schedule: Q01DX009 (ip), vehicle: saline sonified 96 % of control | [8] 97 % of control | dose: 200.0 mg/kg/injection, schedule: Q01DX009 (ip), vehicle: saline sonified 100 % of control | [9] 95 % of control | dose: 400.0 mg/kg/injection, schedule: Q01DX009 (ip), vehicle: saline sonified 103 % of control | [10] 101 % of control

Cc1nc(=S)[nH][nH]1
inactive: [11] 102 % of control | [12] 103 % of control | [13] 122 % of control | [14] 94 % of control | [15] 96 % of control | dose: 400.0 mg/kg/injection, schedule: Q04DX002 (ip), vehicle: saline 87 % of control

CSc1nccc(Cl)n1
inactive: [1] 105 % of control | [2] 102 % of control | [3] 96 % of control | [4] 91 % of control

C(/C=C/c1ccccc1)=C\c1ccccc1
inactive: dose: 50.0 mg/kg/injection, schedule: Q01DX001 (ip), vehicle: saline 104 % of control | [16] 104 % of control | [17] 104 % of control | [18] 104 % of control

N#Cc1cn(C2OC(CO)C(O)C2O)c2ncnc(Cl)c12 (centres undefined)
inactive: [16] 103 % of control | [17] 104 % of control | [18] 103 % of control

CNc1nc(N)nc2c1nc(Cl)n2C1OC(CO)C(O)C1O (centres undefined)
inactive: [16] 100 % of control | [17] 92 % of control | [18] 96 % of control

Cc1ccccc1NC(=O)CC#N
inactive: [19] 90 % of control | [20] 101 % of control | dose: 400.0 mg/kg/injection, schedule: Q04DX002 (ip), vehicle: saline with Tween-80 94 % of control

C=C1CC(CCCC2CC(=C)C(=O)O2)OC1=O (centres undefined)
inactive: [12] 101 % of control | [14] 111 % of control

CC1([N+](=O)[O-])COP(=O)(Nc2ccc(F)cc2)OC1 (centres undefined)
inactive: [2] 100 % of control | [3] 94 % of control

OCC(I)CO
inactive: [16] 106 % of control

CC(C)=CCC/C(C)=C/COC(N)=O
inactive: [19] 100 % of control and 101 % of control | [20] 100 % of control and 99 % of control

COc1cc(N)nc(OC)n1
inactive: [11] 98 % of control | [13] 98 % of control | [15] 97 % of control

CS\C(N)=N/N=C/C(C)=N/N=C(/N)SC
inactive: dose: 15.0 mg/kg/injection, schedule: Q01DX Z (ip), vehicle: saline 98 % of control | dose: 30.0 mg/kg/injection, schedule: Q01DX Z (ip), vehicle: saline 100 % of control | dose: 60.0 mg/kg/injection, schedule: Q01DX Z (ip), vehicle: saline 100 % of control and 105 % of control | dose: 120.0 mg/kg/injection, schedule: Q01DX Z (ip), vehicle: saline 100 % of control and 105 % of control | dose: 240.0 mg/kg/injection, schedule: Q01DX Z (ip), vehicle: saline 100 % of control | dose: 480.0 mg/kg/injection, schedule: Q01DX Z (ip), vehicle: saline 105 % of control

N=C(N)C1CCCCC1
inactive: [16] 95 % of control | [17] 97 % of control | [18] 100 % of control

CCCCSc1n[nH]c(=O)nc1SC
inactive: dose: 100.0 mg/kg/injection, schedule: Q01DX001 (ip), vehicle: acetone 104 % of control

O=C1CSc2ccccc2N1
inactive: dose: 12.5 mg/kg/injection, schedule: Q01DX009 (ip), vehicle: saline with Tween-80 94 % of control | dose: 25.0 mg/kg/injection, schedule: Q01DX009 (ip), vehicle: saline with Tween-80 100 % of control | [21] 102 % of control | dose: 50.0 mg/kg/injection, schedule: Q04DX003 (ip), vehicle: saline with Tween-80 103 % of control | [22] 97 % of control | dose: 100.0 mg/kg/injection, schedule: Q04DX003 (ip), vehicle: saline with Tween-80 103 % of control | [23] 95 % of control | dose: 200.0 mg/kg/injection, schedule: Q04DX003 (ip), vehicle: saline with Tween-80 92 % of control | [24] 110 % of control

c1ccc(-c2cc(-c3ccccc3)c(-c3ccccc3)c(-c3ccccc3)c2-c2ccccc2)cc1
inactive: [21] 87 % of control | [11] 93 % of control | [13] 93 % of control

CCN1C(=O)CC(SC2CC(=O)N(CC)C2=O)C1=O (centres undefined)
inactive: [2] 100 % of control | [3] 94 % of control | [4] 94 % of control

Clc1ccc(OCc2ccccc2)c(Cl)c1
inactive: [22] 106 % of control | [23] 106 % of control | [24] 95 % of control

O=C1CC(=O)N2C=CC=CC2=N1
inactive: dose: 100.0 mg/kg/injection, schedule: Q01DX009 (ip), vehicle: saline 101 % of control | dose: 200.0 mg/kg/injection, schedule: Q01DX009 (ip), vehicle: saline 95 % of control | dose: 400.0 mg/kg/injection, schedule: Q01DX009 (ip), vehicle: saline 92 % of control

CC(C)C(NC(=O)c1ccccc1)C(=O)O (centres undefined)
inactive: [25] 92 % of control | [8] 96 % of control | [26] 98 % of control | [9] 113 % of control | [27] 96 % of control | [10] 100 % of control

S=C1SCN(C2CCCCC2)CN1C1CCCCC1
inactive: [25] 94 % of control | [8] 91 % of control | [26] 95 % of control | [9] 100 % of control | [27] 94 % of control | [10] 100 % of control

CC(=O)C1(O)CCC2C3CC=C4CC(O)CCC4(C)C3CCC21C (centres undefined)
inactive: [2] 102 % of control | dose: 100.0 mg/kg/injection, schedule: Q01DX009 (ip), vehicle: carboxymethylcellulose (CMC) 87 % of control and 90 % of control | dose: 100.0 mg/kg/injection, schedule: Q04DX002 (ip), vehicle: carboxymethylcellulose (CMC) 98 % of control and 100 % of control | dose: 100.0 mg/kg/injection, schedule: Q04DX003 (ip), vehicle: carboxymethylcellulose (CMC) 97 % of control | [3] 94 % of control | dose: 200.0 mg/kg/injection, schedule: Q01DX009 (ip), vehicle: carboxymethylcellulose (CMC) 96 % of control and 97 % of control | dose: 200.0 mg/kg/injection, schedule: Q04DX002 (ip), vehicle: carboxymethylcellulose (CMC) 100 % of control and 110 % of control | dose: 200.0 mg/kg/injection, schedule: Q04DX003 (ip), vehicle: carboxymethylcellulose (CMC) 98 % of control | [4] 98 % of control | dose: 400.0 mg/kg/injection, schedule: Q01DX009 (ip), vehicle: carboxymethylcellulose (CMC) 93 % of control and 94 % of control | dose: 400.0 mg/kg/injection, schedule: Q04DX002 (ip), vehicle: carboxymethylcellulose (CMC) 97 % of control and 100 % of control | dose: 400.0 mg/kg/injection, schedule: Q04DX003 (ip), vehicle: carboxymethylcellulose (CMC) 88 % of control

O=C1CCCCC1Nc1ccc(Cl)cc1 (centres undefined)
inactive: [2] 100 % of control | [3] 95 % of control | [4] 95 % of control

O=C(Sc1ccccc1)c1ccccc1
inactive: [1] 105 % of control | [2] 105 % of control | [3] 108 % of control | [4] 100 % of control

CC(=O)Nc1ccc(N=Nc2ccccc2)cc1
inactive: [5] 100 % of control | [6] 100 % of control | [7] 96 % of control
